Data on one compound can be found in patent US12121530B2, “Composition and methods for treating articulating joint disorders with nucleoside reverse transcriptase inhibitors” (RHODE ISLAND HOSPITAL, priority 2018, dated 2024).

This experiment relates to C28 transiently over-express miR-365. Put plainly: C28 transiently over-expressing miR-365 treated with 3TC, RT-qPCR. It is filed as cell-based, human. The method, then:
Cells were seeded onto desired size plates to reach 70-90% confluence and transfected with miR-365 mimic or miRNA mimic negative control or miR-365 inhibitor or inhibitor negative control (Dharmacon®, Lafayette, Colo., USA). Lipofectamine 3000 (Invitrogen®, Waltham, Mass., USA) was used as transfection reagents. Medium is changed 24 hrs after transfection. 48 hrs post transfection, cells were lysated in either QIAzol for RNA purification and real-time PCR analysis or ice-cold lysis buffer containing protease inhibitor and phosphatase inhibitor for western blot analysis. MiR-365 mimic, miRNA mimic negative control, miR-365 inhibitor and inhibitor negative control were typically used at a final concentration of 25 nM unless otherwise stated.
Both miRNA and mRNA were extracted using miRNeasy Mini Kit (Qiagen®, Germantown, Md., USA) and reversely transcribed using miScriptIIRT Kit (Qiagen®, Germantown, Md., USA) according to manufacturer's instruction. qPCR was performed using SYBR Green PCR master mix (Qiagen®, Germantown, Md., USA) on a Bio-Rad CFX96 real-time PCR detection system (Bio-Rad®, Hercules, Calif., USA). Amplification conditions are as follows: 95° C. for 10 min, 40 cycles of 95° C. for 10″, 55° C. for 30″, and 72° C. for 30″. 18S ribosomal or GAPDH RNA was used as an internal control gene to normalize the mRNAs level. The ubiquitously expressed snRNA U6 was used as an endogenous control for miRNAs level. Primers were synthesized by Integrated DNA Technologies (http://www.idtdna.com). The primers for miR-365 were purchased from Qiagen. Fold changes of mRNA and miRNAs were calculated by the 2^^(ΔΔCt) method and normalized to 18S/GAPDH or U6 snRNA, respectively.
Background: In qPCR the cycle at which signal appears reflects the starting amount.

[1] abbreviates: human chondrocytes over-expressing miR-365, various concentrations.

For `Nc1ccn([C@@H]2CS[C@H](CO)O2)c(=O)n1` [3TC, lamivudine], under setting [1], the “ACAN suppression by miR-365” value was “rectifies”, the “miR-365 induced up-regulation of ADAMTS5” value is “completely abolishes”, the “miR-365 induced up-regulation of COL10” value is on record as “completely abolishes” and the “miR-365 induced up-regulation of IHH” value is given as “completely abolishes”. Further, the “miR-365 induced up-regulation of LINE-1” value under setting [1] is listed as “completely abolishes”. Moreover, the “effect of miR-365 on L1, ADAMTS5, IHH, COL10A1 and ACAN levels” value (miR-365 transfected human chondrocytes (FIG. 3O-3T)) was “abolished and in some cases even reversed”.
